# According to PubChem BioAssay AID328 (DTP/NCI, 2004):
# Where “and” joins values, the source holds several entries; their conditions need not be identical. Equal entries are not always repeated. Inconclusive results and toxic doses are left out.
# Test system: BDF1 mice, P388 leukemia ip, median survival T/C
# Assay: NCI In Vivo Anticancer Drug Screen. Data for tumor model P388 Leukemia (intraperitoneal) in B6D2F1 (BDF1) mice
# Details: endpoint: median survival time, higher = longer survival
# How it was run: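 Transplantable tumour in mice; compound vs vehicle dosing; survival scored; ratio of treated to control reported.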
# [1] = dose: 50.0 mg/kg/injection, schedule: Q04DX003 (ip), vehicle: saline with Tween-80
# [2] = dose: 100.0 mg/kg/injection, schedule: Q04DX003 (ip), vehicle: saline with Tween-80
# [3] = dose: 25.0 mg/kg/injection, schedule: Q01DX009 (ip), vehicle: saline with Tween-80
# [4] = dose: 25.0 mg/kg/injection, schedule: Q04DX003 (ip), vehicle: saline with Tween-80
# [5] = dose: 50.0 mg/kg/injection, schedule: Q01DX009 (ip), vehicle: saline with Tween-80
# [6] = dose: 6.25 mg/kg/injection, schedule: Q04DX003 (ip), vehicle: saline
# [7] = dose: 12.5 mg/kg/injection, schedule: Q04DX003 (ip), vehicle: saline
# [8] = dose: 25.0 mg/kg/injection, schedule: Q04DX003 (ip), vehicle: saline
# [9] = dose: 50.0 mg/kg/injection, schedule: Q04DX003 (ip), vehicle: saline
# [10] = dose: 100.0 mg/kg/injection, schedule: Q04DX003 (ip), vehicle: saline
# [11] = dose: 200.0 mg/kg/injection, schedule: Q04DX003 (ip), vehicle: saline
# [12] = dose: 33.0 mg/kg/injection, schedule: Q01DX009 (ip), vehicle: saline with Tween-80
# [13] = dose: 75.0 mg/kg/injection, schedule: Q01DX009 (ip), vehicle: saline with Tween-80
# [14] = dose: 3.13 mg/kg/injection, schedule: Q01DX009 (ip), vehicle: saline
# [15] = dose: 6.25 mg/kg/injection, schedule: Q01DX009 (ip), vehicle: saline
# [16] = dose: 25.0 mg/kg/injection, schedule: Q01DX009 (ip), vehicle: saline
# [17] = dose: 100.0 mg/kg/injection, schedule: Q04DX003 (ip), vehicle: Klucel (hydroxypropylcellulose) (HPC)
# [18] = dose: 200.0 mg/kg/injection, schedule: Q04DX003 (ip), vehicle: Klucel (hydroxypropylcellulose) (HPC)
# [19] = dose: 200.0 mg/kg/injection, schedule: Q04DX003 (ip), vehicle: saline with Tween-80
# [20] = dose: 400.0 mg/kg/injection, schedule: Q04DX003 (ip), vehicle: saline with Tween-80
# [21] = dose: 400.0 mg/kg/injection, schedule: Q04DX003 (ip), vehicle: saline
# [22] = dose: 12.5 mg/kg/injection, schedule: Q01DX009 (ip), vehicle: saline with Tween-80
# [23] = dose: 100.0 mg/kg/injection, schedule: Q01DX009 (ip), vehicle: saline with Tween-80
# [24] = dose: 100.0 mg/kg/injection, schedule: Q01DX009 (ip), vehicle: saline
# [25] = dose: 25.0 mg/kg/injection, schedule: Q04DX003 (ip), vehicle: saline sonified
# [26] = dose: 50.0 mg/kg/injection, schedule: Q04DX003 (ip), vehicle: saline sonified
smiles,measurement,setting,value
O=C(CC(C(=O)c1ccccc1)N1CC1)c1ccccc1 (configuration not stated),T/C,[1],90 % of control
same,T/C,[2],90 % of control
CCCCNC(C)(C)C(SSC(c1cccs1)C(C)(C)NCCCC)c1cccs1 (configuration not stated),T/C,[3],100 % of control
same,T/C,[4],109 % of control
same,T/C,[5],100 % of control
same,T/C,[1],118 % of control
same,T/C,[2],118 % of control
OCCNCCN1CCN(CCCN2c3ccccc3Sc3ccc(C(F)(F)F)cc32)CC1,T/C,[6],104 % of control
same,T/C,[7],110 % of control
same,T/C,[8],91 % of control and 110 % of control
same,T/C,[9],91 % of control
O=[N+]([O-])c1cc2no[n+]([O-])c2cc1N1CCOCC1,T/C,"dose: 30.0 mg/kg/injection, schedule: Q01DX009 (ip), vehicle: saline with Tween-80",108 % of control
Cc1ccc(S(=O)(=O)CC#CCOc2ccccc2)cc1,T/C,[9],100 % of control
same,T/C,[10],100 % of control
same,T/C,[11],104 % of control
Nc1nc(=S)c2ncn(C3OC(COC(=O)c4ccccc4)C(OC(=O)c4ccccc4)C3OC(=O)c3ccccc3)c2[nH]1 (configuration not stated),T/C,"dose: 13.2 mg/kg/injection, schedule: Q01DX009 (ip), vehicle: saline with Tween-80",120 % of control
same,T/C,[12],154 % of control
same,T/C,[13],90 % of control
same,T/C,[10],163 % of control
CS(=O)(=O)OCCN(CCOS(C)(=O)=O)c1ccc(C(=O)O)cc1,T/C,[12],195 % of control
same,T/C,[5],200 % of control
same,T/C,[13],236 % of control
same,T/C,"dose: 300.0 mg/kg/injection, schedule: Q04DX003 (ip), vehicle: saline with Tween-80",113 % of control
O=C(O)C(O)C(O)C(=O)O.O=C(O)C(O)C(O)C(=O)O.[O]=[V].[O]=[V] (configuration not stated),T/C,[14],110 % of control
same,T/C,[15],90 % of control and 100 % of control
same,T/C,[6],100 % of control
same,T/C,"dose: 12.5 mg/kg/injection, schedule: Q01DX009 (ip), vehicle: saline",95 % of control and 100 % of control
same,T/C,[7],95 % of control and 100 % of control
same,T/C,[16],90 % of control and 88 % of control
same,T/C,[8],100 % of control
O=C(NC1CCC1C(=O)O)OCc1ccccc1 (configuration not stated),T/C,"dose: 100.0 mg/kg/injection, schedule: Q04DX002 (ip), vehicle: saline with Tween-80",101 % of control
same,T/C,"dose: 200.0 mg/kg/injection, schedule: Q04DX002 (ip), vehicle: saline with Tween-80",104 % of control
same,T/C,"dose: 400.0 mg/kg/injection, schedule: Q04DX002 (ip), vehicle: saline with Tween-80",110 % of control
CC(C)=CCNc1ncnc2c1ncn2C1OC(CO)C(O)C1O (configuration not stated),T/C,"dose: 50.0 mg/kg/injection, schedule: Q04DX003 (ip), vehicle: Klucel (hydroxypropylcellulose) (HPC)",95 % of control
same,T/C,[17],100 % of control
same,T/C,[2],104 % of control
same,T/C,[18],95 % of control
same,T/C,[19],100 % of control
O=NN(CCCl)C(=O)c1cc(Cl)cc(Cl)c1,T/C,[4],104 % of control
same,T/C,[1],104 % of control
same,T/C,[2],100 % of control and 118 % of control
same,T/C,[19],100 % of control and 104 % of control
same,T/C,[20],100 % of control
N#CCCCCNC(=O)C1CCC(=O)N1 (configuration not stated),T/C,[10],111 % of control
same,T/C,[21],111 % of control
C/C(=C1/c2ccccc2-c2n[nH]c(C)c21)S(=O)(=O)O,T/C,[2],104 % of control
same,T/C,[19],100 % of control
same,T/C,[20],100 % of control
O=C1CC(=Nc2ccccc2)N(c2ccccc2)N1,T/C,"dose: 33.75 mg/kg/injection, schedule: Q01DX009 (ip), vehicle: saline with Tween-80",109 % of control
same,T/C,"dose: 67.5 mg/kg/injection, schedule: Q01DX009 (ip), vehicle: saline with Tween-80",91 % of control
same,T/C,"dose: 135.0 mg/kg/injection, schedule: Q01DX009 (ip), vehicle: saline with Tween-80",89 % of control
C[P+]1(C)CCc2c1ccc1ccccc21,T/C,[22],104 % of control
same,T/C,[3],100 % of control
same,T/C,[5],104 % of control
COc1cc(/C=N/NC(=O)C(=O)Nc2cccc(Cl)c2)cc(OC)c1O,T/C,"dose: 50.0 mg/kg/injection, schedule: Q01DX005 (ip), vehicle: saline with Tween-80",91 % of control
same,T/C,"dose: 100.0 mg/kg/injection, schedule: Q01DX005 (ip), vehicle: saline with Tween-80",100 % of control
same,T/C,"dose: 200.0 mg/kg/injection, schedule: Q01DX005 (ip), vehicle: saline with Tween-80",100 % of control
CCCOP(=O)(CCl)OCCC,T/C,[10],95 % of control
same,T/C,[11],100 % of control
same,T/C,[21],100 % of control
C=CCCCCCCCCC(=O)NCCN1CCOCC1,T/C,[5],104 % of control
same,T/C,[23],100 % of control
CC[CH2][Pb]([CH2]CC)([CH2]CC)[O]C(=O)C(Cl)(Cl)Cl,T/C,"dose: 3.12 mg/kg/injection, schedule: Q01DX009 (ip), vehicle: saline with Tween-80",122 % of control
same,T/C,"dose: 6.25 mg/kg/injection, schedule: Q01DX009 (ip), vehicle: saline with Tween-80",121 % of control
same,T/C,[22],108 % of control
CCSc1nc(C=O)c(Cc2ccc(Br)cc2)c(=O)[nH]1,T/C,[2],109 % of control
same,T/C,[19],122 % of control
same,T/C,[20],150 % of control
CCOC(=O)Nc1cc(NC(C)CCCN(CC)CC)c2ncc(-c3ccccc3)nc2n1 (configuration not stated) (tested in a mixture with another compound),T/C,[16],100 % of control
same,T/C,[8],104 % of control
same,T/C,"dose: 50.0 mg/kg/injection, schedule: Q01DX009 (ip), vehicle: saline",100 % of control
same,T/C,[9],100 % of control
same,T/C,[24],104 % of control
same,T/C,[10],104 % of control
O=[N+]([O-])c1ccc(C[Se]c2ncnc3c2ncn3C2OC(CO)C(O)C2O)cc1 (configuration not stated),T/C,[7],109 % of control
same,T/C,[8],103 % of control
same,T/C,[9],96 % of control
same,T/C,[10],105 % of control
O=NN(CCCl)C(=O)N[C@H]1CCCC[C@@H]1Cl,T/C,"dose: 33.0 mg/kg/injection, schedule: Q04DX003 (ip), vehicle: saline with Tween-80",272 % of control
same,T/C,[1],272 % of control
same,T/C,"dose: 75.0 mg/kg/injection, schedule: Q04DX003 (ip), vehicle: saline with Tween-80",213 % of control
C[C@]12CCC(=O)C=C1CC[C@@H]1[C@@H]2[C@@H](O)C[C@@]2(C)[C@H]1CC[C@]2(O)C(=O)COC(=O)c1ccc([N+](=O)[O-])cc1Cl,T/C,[2],100 % of control
same,T/C,[19],107 % of control
same,T/C,[20],103 % of control
COc1ccc([I+]c2ccc(OC)cc2)cc1,T/C,"dose: 1.56 mg/kg/injection, schedule: Q01DX009 (ip), vehicle: saline",100 % of control
same,T/C,[14],100 % of control
same,T/C,[15],109 % of control
same,T/C,"dose: 12.5 mg/kg/injection, schedule: Q04DX003 (ip), vehicle: saline sonified",100 % of control
same,T/C,[25],100 % of control
same,T/C,[26],100 % of control
CC(C)(C)c1cc(CO)cc(C(C)(C)C)c1O,T/C,"dose: 100.0 mg/kg/injection, schedule: Q01DX009 (ip), vehicle: Klucel (hydroxypropylcellulose) (HPC)",107 % of control
same,T/C,[17],113 % of control
same,T/C,"dose: 200.0 mg/kg/injection, schedule: Q01DX009 (ip), vehicle: Klucel (hydroxypropylcellulose) (HPC)",103 % of control
same,T/C,[18],118 % of control
same,T/C,"dose: 400.0 mg/kg/injection, schedule: Q01DX009 (ip), vehicle: Klucel (hydroxypropylcellulose) (HPC)",111 % of control
same,T/C,"dose: 400.0 mg/kg/injection, schedule: Q04DX003 (ip), vehicle: Klucel (hydroxypropylcellulose) (HPC)",100 % of control
CCCN1c2c(nc(N)[nH]c2=O)NCC1CNc1ccc(C(=O)NC(CCC(=O)O)C(=O)O)cc1 (configuration not stated),T/C,[24],108 % of control
same,T/C,[10],112 % of control
same,T/C,"dose: 200.0 mg/kg/injection, schedule: Q01DX009 (ip), vehicle: saline",100 % of control
same,T/C,[11],100 % of control
same,T/C,"dose: 400.0 mg/kg/injection, schedule: Q01DX009 (ip), vehicle: saline",110 % of control
same,T/C,[21],91 % of control
NC1=NC(c2ccc(Cl)cc2)N(c2ccc(S(=O)(=O)Nc3ncccn3)cc2)C(N)=N1 (configuration not stated),T/C,[25],104 % of control
same,T/C,[26],104 % of control
same,T/C,"dose: 100.0 mg/kg/injection, schedule: Q04DX003 (ip), vehicle: saline sonified",95 % of control
COCCCn1c(C(Cl)(Cl)Cl)nn2c(=O)c3ccccc3nc2c1=O,T/C,[23],87 % of control
same,T/C,"dose: 200.0 mg/kg/injection, schedule: Q01DX009 (ip), vehicle: saline with Tween-80",90 % of control
